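Five concentrations, 48 hours, 96-well plates. Here, GI50 denotes the concentration required for 50% inhibition of growth.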 Calls of active or inactive are those of the source. Rule as the data show it: active = GI50 up to about 1.1 µM and inactive = higher.

Some test systems named below: T47D; SN12C; A549; HT-29; SK-MEL-28; RPMI-8226; K562; SR; HOP-92; OVCAR-5; SNB-75; TK-10; HL-60; OVCAR-4; MOLT-4; MDA-N; RXF 393; NCI/ADR-RES; HCT-15.
Common to all, as to test: NCI anticancer screen, dose series, 48 h

As to `OCC(O)C(O)C(O)C(/C=N\Nc1ncnc2ccc(Br)cc12)=N/Nc1ncnc2ccc(Br)cc12` (stereo unspecified), the GI50 in the experiment with T47D was 3.2 µM (inactive); in the experiment on SN12C it was 17.9 µM (inactive); in the experiment on A549, 23.2 µM (inactive); in the experiment on HT-29, 4.44 µM (inactive); in the experiment with SK-MEL-28 it was 45.9 µM (inactive); with RPMI-8226, > 100 µM (inactive). Also, the GI50 in the experiment with K562 is 7.48 µM (inactive); in the experiment on SR, 3.17 µM (inactive); in the experiment on HOP-92 it was 13.8 µM (inactive); with OVCAR-5 it was 16.7 µM (inactive); in the experiment on SNB-75, 24.4 µM (inactive); in the experiment on TK-10, 80.5 µM (inactive). For the same compound, the GI50 in the experiment on HL-60 was 3.15 µM (inactive); with OVCAR-4 it was 2.94 µM (inactive); in the experiment with MOLT-4 it was 2.62 µM (inactive); with MDA-N it was 15.1 µM (inactive); with RXF 393 it was 24.9 µM (inactive).

`CN(C)CCCN1c2ccc([N+](=O)[O-])cc2CCc2cc([N+](=O)[O-])ccc21`: the GI50 in the experiment on T47D was 16.1 µM (inactive); with SN12C it was 15 µM (inactive); with NCI/ADR-RES, 16.4 µM (inactive); in the experiment with A549, 16.4 µM (inactive); in the experiment on HCT-15 it was 17.4 µM; in the experiment on HT-29 it was 12.4 µM (inactive). For the same compound, the GI50 was 15 µM (inactive) in the experiment with SK-MEL-28; 15.5 µM (inactive) with RPMI-8226; 13.1 µM (inactive) in the experiment on K562; 5.41 µM (inactive) in the experiment with HOP-92; 13.9 µM (inactive) in the experiment with OVCAR-5; 15.3 µM (inactive) with SNB-75. Further, the GI50 with TK-10 is 12 µM (inactive); with HL-60, 14.1 µM (inactive); with MOLT-4 it was 10.1 µM (inactive); with MDA-N, 13.6 µM (inactive); in the experiment on RXF 393 it was 11.7 µM (inactive).

As to `CCN(CC)CCCNc1nc(=O)[nH]c(C)c1C(=O)Nc1cccc2cc3ccccc3cc12`, the GI50 in the experiment with T47D was > 100 µM (inactive); in the experiment on SN12C, > 100 µM (inactive); in the experiment with NCI/ADR-RES it was > 100 µM (inactive); with A549 it was > 100 µM (inactive); with HCT-15, greater than 100 µM; with HT-29, > 100 µM (inactive). In addition, the GI50 in the experiment with SK-MEL-28 is > 100 µM (inactive); in the experiment with RPMI-8226, > 100 µM (inactive); in the experiment on K562, > 100 µM (inactive); with HOP-92 it was 62.2 µM (inactive); with OVCAR-5, > 100 µM (inactive); with SNB-75 it was > 100 µM (inactive). Further, the GI50 in the experiment on TK-10 is > 100 µM (inactive); in the experiment on HL-60, > 100 µM (inactive); in the experiment with OVCAR-4, > 100 µM (inactive); in the experiment on MOLT-4 it was > 100 µM (inactive); with MDA-N it was > 100 µM (inactive); in the experiment with RXF 393, 78.7 µM (inactive).

With `CN1C(=O)C(O)C[C@@H]1c1ccc(F)cc1` (stereo partly specified), the GI50 was > 100 µM (inactive) with T47D; > 100 µM (inactive) with SN12C; > 100 µM (inactive) in the experiment on A549; greater than 100 µM in the experiment with HCT-15; > 100 µM (inactive) in the experiment on HT-29; > 100 µM (inactive) in the experiment with SK-MEL-28. For the same compound, the GI50 in the experiment on RPMI-8226, with SR, in the experiment on HOP-92, in the experiment on OVCAR-5, in the experiment on TK-10 and in the experiment on HL-60 was > 100 µM (inactive) in each case. Also, the GI50 with OVCAR-4, in the experiment with MOLT-4, with MDA-N and in the experiment with RXF 393 was > 100 µM (inactive) each time.

As for `CN(CC(=O)Nc1ccccc1C(=O)O)c1ccccc1`, the GI50 in the experiment on T47D is > 100 µM (inactive); with SN12C, 40.6 µM (inactive); in the experiment with A549, > 100 µM (inactive); with HCT-15, 67.1 µM; in the experiment with HT-29, > 100 µM (inactive); in the experiment with SK-MEL-28, > 100 µM (inactive). The GI50 in the experiment on RPMI-8226, in the experiment with K562, with SR, in the experiment on HOP-92, with OVCAR-5 and in the experiment with SNB-75 was > 100 µM (inactive) in each case. The GI50 with TK-10, with HL-60, with OVCAR-4, with MOLT-4, with MDA-N and with RXF 393 was > 100 µM (inactive) in each case.

With `Cc1ccc(C(=O)/C(C#N)=C/Nc2c(C)n(C)n(-c3ccccc3)c2=O)cc1`, the GI50 with T47D is > 100 µM (inactive); in the experiment on SN12C, > 100 µM (inactive); with A549, > 100 µM (inactive); with HCT-15, greater than 100 µM; with HT-29 it was > 100 µM (inactive); in the experiment with SK-MEL-28, > 100 µM (inactive). Further, the GI50 with RPMI-8226 was > 100 µM (inactive); with K562 it was > 100 µM (inactive); with SR it was > 100 µM (inactive); in the experiment on HOP-92, 46.2 µM (inactive); in the experiment on OVCAR-5, > 100 µM (inactive); in the experiment on TK-10, > 100 µM (inactive). For the same compound, the GI50 in the experiment on HL-60, with OVCAR-4, with MOLT-4, in the experiment on MDA-N and with RXF 393 was > 100 µM (inactive) each time.

As for `C/C(=N\NS(=O)(=O)c1ccc(C)cc1)P(=O)(O)O`, the GI50 in the experiment on T47D was > 100 µM (inactive); with SN12C it was > 100 µM (inactive); with NCI/ADR-RES it was > 100 µM (inactive); in the experiment with A549 it was > 100 µM (inactive); in the experiment with HCT-15, greater than 100 µM; in the experiment with HT-29, > 100 µM (inactive). The GI50 with SK-MEL-28, with RPMI-8226, in the experiment with K562, in the experiment with HOP-92, with OVCAR-5 and in the experiment on SNB-75 was > 100 µM (inactive) throughout. The GI50 with TK-10, with OVCAR-4, in the experiment with MDA-N and in the experiment on RXF 393 was > 100 µM (inactive) in each case.

As for `N#Cc1c(-c2ccccc2)cc(-c2ccccc2)n(C2OCC(O)C(O)C2O)c1=S` (stereo unspecified), the GI50 in the experiment on T47D was 4.42 µM (inactive); in the experiment with SN12C, > 10 µM (inactive); in the experiment on NCI/ADR-RES it was 32.4 µM (inactive); with A549, 22.8 µM (inactive); with HCT-15, 25.4 µM; with HT-29 it was 23 µM (inactive). Besides, the GI50 in the experiment on SK-MEL-28 was 26.6 µM (inactive); in the experiment on RPMI-8226, 10.4 µM (inactive); in the experiment with K562, 39 µM (inactive); in the experiment on OVCAR-5 it was 24.8 µM (inactive); in the experiment with SNB-75, 24.9 µM (inactive); with TK-10, 27.9 µM (inactive). The GI50 in the experiment on OVCAR-4 is 24.5 µM (inactive); in the experiment with MOLT-4, 16.7 µM (inactive); in the experiment with MDA-N it was 17.3 µM (inactive); in the experiment on RXF 393, 18.4 µM (inactive).

For the compound `N=C(N)SCC(=O)O`, the GI50 in the experiment on T47D is > 100 µM (inactive); in the experiment with SN12C it was > 100 µM (inactive); with NCI/ADR-RES it was > 100 µM (inactive); with A549 it was > 100 µM (inactive); with HCT-15, greater than 100 µM; in the experiment with HT-29, > 100 µM (inactive). Also, the GI50 in the experiment with SK-MEL-28 is > 100 µM (inactive); in the experiment on RPMI-8226, > 100 µM (inactive); with K562, 5.68 µM (inactive); in the experiment on HOP-92 it was > 100 µM (inactive); in the experiment with OVCAR-5, > 100 µM (inactive); with SNB-75, > 100 µM (inactive). For the same compound, the GI50 with TK-10, in the experiment with OVCAR-4, in the experiment with MOLT-4, in the experiment with MDA-N and in the experiment with RXF 393 was > 100 µM (inactive) throughout.

For the compound `C/C=C1\CC(C(=O)OCC)CCCCCCC1=O` (stereo unspecified), the GI50 with T47D was > 100 µM (inactive); in the experiment with SN12C, > 100 µM (inactive); in the experiment on NCI/ADR-RES it was > 100 µM (inactive); in the experiment with A549, > 100 µM (inactive); in the experiment on HCT-15, greater than 100 µM; with HT-29, > 100 µM (inactive). Also, the GI50 with SK-MEL-28 was > 100 µM (inactive); in the experiment on OVCAR-5, > 100 µM (inactive); with SNB-75 it was 69 µM (inactive); in the experiment with TK-10 it was > 100 µM (inactive); in the experiment with HL-60, 51.1 µM (inactive); in the experiment on OVCAR-4 it was > 100 µM (inactive). Moreover, the GI50 with MOLT-4, in the experiment on MDA-N and in the experiment with RXF 393 was > 100 µM (inactive) throughout.

`COc1ccccc1CNCCCCCNCCCCCCCCCCNCCCCCNCc1ccccc1OC`: the GI50 with T47D was 54.7 µM (inactive); in the experiment on SN12C, 27.4 µM (inactive); in the experiment with A549, 23.4 µM (inactive); with HCT-15 it was greater than 100 µM; in the experiment on HT-29 it was 96.6 µM (inactive); in the experiment on SK-MEL-28, 79.1 µM (inactive). Besides, the GI50 with RPMI-8226 was 36.7 µM (inactive); in the experiment on K562 it was 13.6 µM (inactive); in the experiment with SR, 14.9 µM (inactive); with HOP-92 it was 34.5 µM (inactive); in the experiment on SNB-75 it was 25.6 µM (inactive); with TK-10, 54.6 µM (inactive). Besides, the GI50 in the experiment with HL-60 was 21.8 µM (inactive); in the experiment with OVCAR-4, 79.1 µM (inactive); with MOLT-4, 13.6 µM (inactive); in the experiment with MDA-N, 18.2 µM (inactive); in the experiment with RXF 393 it was 31 µM (inactive).

For the compound `C[N+](C)(CCNC(=O)c1cccc2cc3ccccc3nc12)Cc1ccc([N+](=O)[O-])s1`, the GI50 was > 25 µM (inactive) with T47D; > 25 µM (inactive) in the experiment on SN12C; > 25 µM (inactive) with NCI/ADR-RES; > 25 µM (inactive) in the experiment on A549; greater than 25 µM in the experiment with HCT-15; > 25 µM (inactive) in the experiment on HT-29. The GI50 in the experiment with SK-MEL-28, in the experiment with RPMI-8226, in the experiment on K562, with HOP-92, in the experiment with OVCAR-5 and in the experiment with SNB-75 was > 25 µM (inactive) each time. The GI50 in the experiment with TK-10 was > 25 µM (inactive); with HL-60 it was 10.9 µM (inactive); with MOLT-4 it was > 25 µM (inactive); with MDA-N, > 25 µM (inactive); in the experiment with RXF 393, > 25 µM (inactive).
